Reference: article PMC10337138 (Acta Neuropathologica Communications, 2023)

Tests used:
AKT3 = AKT3 (Homo sapiens, UniProt Q9Y243); conditions: 1 mM ATP; inhibitor
Description: (§1) Kinase selectivity panel Kinome profiling was conducted by AssayQuant Technologies (Marlboro, MA) using Sox chromophore technology and Sox-based peptide substrates developed for human kinases in a 384-well format. Compounds were tested at 1 µM in the presence of 1 mM ATP.

BRSK2 = BRSK2 (Homo sapiens, UniProt Q8IWQ3); conditions: 1 mM ATP; inhibitor
Description: as §1

CDK17 = CDK17 (Homo sapiens, UniProt Q00537); conditions: 1 mM ATP; inhibitor
Sequence of CDK17 (Q00537 whole entry): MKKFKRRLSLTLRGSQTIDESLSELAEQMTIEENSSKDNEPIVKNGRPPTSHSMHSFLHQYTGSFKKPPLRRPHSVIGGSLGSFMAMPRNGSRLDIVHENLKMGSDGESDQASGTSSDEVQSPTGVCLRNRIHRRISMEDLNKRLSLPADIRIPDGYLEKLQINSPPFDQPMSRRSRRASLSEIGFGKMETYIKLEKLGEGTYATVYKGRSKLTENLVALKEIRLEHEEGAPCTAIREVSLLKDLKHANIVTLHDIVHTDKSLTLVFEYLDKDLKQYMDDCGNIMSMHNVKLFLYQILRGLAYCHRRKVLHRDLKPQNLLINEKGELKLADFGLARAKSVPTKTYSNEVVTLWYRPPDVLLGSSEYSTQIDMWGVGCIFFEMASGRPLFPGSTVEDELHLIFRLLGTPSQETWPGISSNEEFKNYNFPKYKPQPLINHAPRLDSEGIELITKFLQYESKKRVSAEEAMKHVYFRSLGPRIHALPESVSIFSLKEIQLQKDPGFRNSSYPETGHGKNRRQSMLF
Description: as §1

CDK5/P35 = CDK5/P35 (Homo sapiens, UniProt Q00535); conditions: 1 mM ATP; inhibitor
Description: as §1

EPHA6 = EPHA6 (Homo sapiens, UniProt Q9UF33); conditions: 1 mM ATP; inhibitor
Description: as §1

EPHA7 = EPHA7 (Homo sapiens, UniProt Q15375); conditions: 1 mM ATP; inhibitor
Description: as §1

FAM20C = FAM20C (Homo sapiens, UniProt Q8IXL6); conditions: 1 mM ATP; inhibitor
Description: as §1

FYNB = target: T1, FYNB (Homo sapiens, UniProt P06241); conditions: 1 mM ATP; inhibitor
T1 construct: gene FYN
Description: as §1

HCK = HCK (Homo sapiens, UniProt P08631); conditions: 1 mM ATP; inhibitor
Sequence of HCK (P08631 whole entry): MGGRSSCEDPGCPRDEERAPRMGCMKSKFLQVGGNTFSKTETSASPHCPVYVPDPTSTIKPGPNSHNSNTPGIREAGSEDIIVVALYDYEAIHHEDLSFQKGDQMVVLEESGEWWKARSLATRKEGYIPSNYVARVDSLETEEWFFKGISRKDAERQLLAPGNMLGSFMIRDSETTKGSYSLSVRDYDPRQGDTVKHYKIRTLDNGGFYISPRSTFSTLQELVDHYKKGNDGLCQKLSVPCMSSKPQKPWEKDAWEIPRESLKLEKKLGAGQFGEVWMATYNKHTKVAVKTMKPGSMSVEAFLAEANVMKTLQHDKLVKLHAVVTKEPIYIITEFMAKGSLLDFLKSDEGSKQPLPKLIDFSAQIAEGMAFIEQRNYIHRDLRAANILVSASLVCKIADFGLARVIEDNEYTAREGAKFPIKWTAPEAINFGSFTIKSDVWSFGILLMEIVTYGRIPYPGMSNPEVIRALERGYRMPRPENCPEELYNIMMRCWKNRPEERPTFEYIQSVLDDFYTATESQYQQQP
Description: as §1

ICK = target: T2, ICK (Homo sapiens, UniProt Q9UPZ9); conditions: 1 mM ATP; inhibitor
T2 construct: gene CILK1
Description: as §1

MAP2K1/MEK1 = MAP2K1/MEK1 (Homo sapiens, UniProt Q02750); conditions: 1 mM ATP; inhibitor
Description: as §1

MAP3K11 = MAP3K11 (Homo sapiens, UniProt Q16584); conditions: 1 mM ATP; inhibitor
Description: as §1

MAP3K7 = MAP3K7 (Homo sapiens, UniProt O43318); conditions: 1 mM ATP; inhibitor
Description: as §1

MAPK14/P38A = MAPK14/P38A (Homo sapiens, UniProt Q16539); conditions: 1 mM ATP; inhibitor
Sequence of MAPK14/P38A (Q16539 whole entry): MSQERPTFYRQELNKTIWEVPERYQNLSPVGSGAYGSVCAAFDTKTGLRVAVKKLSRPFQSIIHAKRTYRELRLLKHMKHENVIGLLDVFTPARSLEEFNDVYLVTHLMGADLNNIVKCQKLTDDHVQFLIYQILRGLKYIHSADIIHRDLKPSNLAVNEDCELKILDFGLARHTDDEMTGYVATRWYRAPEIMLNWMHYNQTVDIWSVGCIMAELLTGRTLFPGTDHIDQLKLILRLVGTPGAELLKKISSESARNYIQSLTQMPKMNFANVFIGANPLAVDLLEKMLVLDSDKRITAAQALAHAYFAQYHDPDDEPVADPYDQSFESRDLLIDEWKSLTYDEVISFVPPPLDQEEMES
Description: as §1

MARK1 = MARK1 (Homo sapiens, UniProt Q9P0L2); conditions: 1 mM ATP; inhibitor
Description: as §1

MASTL = MASTL (Homo sapiens, UniProt Q96GX5); conditions: 1 mM ATP; inhibitor
Sequence of MASTL (Q96GX5 whole entry): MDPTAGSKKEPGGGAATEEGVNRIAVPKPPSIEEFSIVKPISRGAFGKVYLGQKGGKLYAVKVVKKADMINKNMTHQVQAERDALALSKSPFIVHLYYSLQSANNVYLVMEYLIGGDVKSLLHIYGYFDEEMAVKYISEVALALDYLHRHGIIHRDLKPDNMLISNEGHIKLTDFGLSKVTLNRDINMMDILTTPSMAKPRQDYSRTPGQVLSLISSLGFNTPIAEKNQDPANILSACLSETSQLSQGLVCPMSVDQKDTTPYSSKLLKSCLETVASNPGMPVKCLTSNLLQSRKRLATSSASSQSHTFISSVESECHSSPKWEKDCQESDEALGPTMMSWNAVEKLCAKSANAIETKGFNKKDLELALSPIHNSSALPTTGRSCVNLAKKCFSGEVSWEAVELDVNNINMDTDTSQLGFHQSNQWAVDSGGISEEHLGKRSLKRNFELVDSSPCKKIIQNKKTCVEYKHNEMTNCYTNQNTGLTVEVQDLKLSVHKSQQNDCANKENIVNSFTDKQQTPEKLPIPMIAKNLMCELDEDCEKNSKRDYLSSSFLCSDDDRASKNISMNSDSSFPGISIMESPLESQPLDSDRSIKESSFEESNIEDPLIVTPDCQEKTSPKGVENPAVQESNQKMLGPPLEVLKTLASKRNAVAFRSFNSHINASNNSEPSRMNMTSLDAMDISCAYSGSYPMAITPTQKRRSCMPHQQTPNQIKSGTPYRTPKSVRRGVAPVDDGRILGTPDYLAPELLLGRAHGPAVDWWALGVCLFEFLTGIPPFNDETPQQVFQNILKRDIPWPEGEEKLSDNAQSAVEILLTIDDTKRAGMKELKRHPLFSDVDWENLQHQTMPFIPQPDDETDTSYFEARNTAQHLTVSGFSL
Description: as §1

MERTK/MER = MERTK/MER (Homo sapiens, UniProt Q12866); conditions: 1 mM ATP; inhibitor
Description: as §1

MINK1 = MINK1 (Homo sapiens, UniProt Q8N4C8); conditions: 1 mM ATP; inhibitor
Description: as §1

NDR2 = target: T3, NDR2 (Homo sapiens, UniProt Q9Y2H1); conditions: 1 mM ATP; inhibitor
T3 construct: gene STK38L
Description: as §1

NEK6 = NEK6 (Homo sapiens, UniProt Q9HC98); conditions: 1 mM ATP; inhibitor
Description: as §1

PAK6 = PAK6 (Homo sapiens, UniProt Q9NQU5); conditions: 1 mM ATP; inhibitor
Description: as §1

PHKG1 = PHKG1 (Homo sapiens, UniProt Q16816); conditions: 1 mM ATP; inhibitor
Description: as §1

ROCK1 = ROCK1 (Homo sapiens, UniProt Q13464); conditions: 1 mM ATP; inhibitor
Description: as §1

RPS6KA1/RSK1 = RPS6KA1/RSK1 (Homo sapiens, UniProt Q15418); conditions: 1 mM ATP; inhibitor
Description: as §1

STK4/MST1 = STK4/MST1 (Homo sapiens, UniProt Q13043); conditions: 1 mM ATP; inhibitor
Description: as §1

TBK1 = TBK1 (Homo sapiens, UniProt Q9UHD2); conditions: 1 mM ATP; inhibitor
Description: as §1

ULK3 = ULK3 (Homo sapiens, UniProt Q6PHR2); conditions: 1 mM ATP; inhibitor
Sequence of ULK3 (Q6PHR2 whole entry): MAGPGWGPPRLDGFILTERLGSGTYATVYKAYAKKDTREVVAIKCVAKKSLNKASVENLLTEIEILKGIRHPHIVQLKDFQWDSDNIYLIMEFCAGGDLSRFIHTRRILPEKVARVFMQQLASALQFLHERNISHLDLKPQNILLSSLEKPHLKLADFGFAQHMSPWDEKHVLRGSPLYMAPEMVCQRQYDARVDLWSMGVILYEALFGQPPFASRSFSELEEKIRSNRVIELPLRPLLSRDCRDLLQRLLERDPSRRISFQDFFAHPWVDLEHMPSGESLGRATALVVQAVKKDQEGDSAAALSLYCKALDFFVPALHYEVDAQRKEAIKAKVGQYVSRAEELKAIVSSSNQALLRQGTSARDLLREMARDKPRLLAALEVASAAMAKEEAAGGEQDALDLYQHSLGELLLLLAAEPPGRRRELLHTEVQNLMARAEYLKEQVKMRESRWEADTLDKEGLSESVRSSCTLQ
Description: as §1

DYRK1B = DYRK1B (Homo sapiens, UniProt Q9Y463); assay: biochemical; conditions: read-out: 1 µM GBD# (ibrutinib), % inhibition
Sequence of DYRK1B (Q9Y463 whole entry): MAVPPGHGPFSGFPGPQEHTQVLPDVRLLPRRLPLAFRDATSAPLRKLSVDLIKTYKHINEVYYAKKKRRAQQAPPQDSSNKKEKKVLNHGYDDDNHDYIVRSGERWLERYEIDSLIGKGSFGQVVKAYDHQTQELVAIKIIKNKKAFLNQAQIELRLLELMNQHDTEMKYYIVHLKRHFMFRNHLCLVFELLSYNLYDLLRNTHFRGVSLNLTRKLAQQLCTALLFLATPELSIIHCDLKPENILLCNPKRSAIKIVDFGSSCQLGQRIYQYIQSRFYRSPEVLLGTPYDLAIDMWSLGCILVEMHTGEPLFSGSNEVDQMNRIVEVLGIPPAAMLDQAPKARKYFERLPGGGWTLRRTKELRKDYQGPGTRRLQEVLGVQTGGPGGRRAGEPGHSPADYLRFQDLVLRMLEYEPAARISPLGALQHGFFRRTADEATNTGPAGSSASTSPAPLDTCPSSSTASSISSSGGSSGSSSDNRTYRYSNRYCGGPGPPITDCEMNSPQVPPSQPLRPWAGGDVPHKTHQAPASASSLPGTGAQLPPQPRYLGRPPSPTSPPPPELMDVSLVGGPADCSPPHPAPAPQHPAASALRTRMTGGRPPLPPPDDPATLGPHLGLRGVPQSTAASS

LTK = LTK (Homo sapiens, UniProt P29376); assay: biochemical; conditions: read-out: 1 µM GBD# (ibrutinib), % inhibition
Sequence of LTK (P29376 whole entry): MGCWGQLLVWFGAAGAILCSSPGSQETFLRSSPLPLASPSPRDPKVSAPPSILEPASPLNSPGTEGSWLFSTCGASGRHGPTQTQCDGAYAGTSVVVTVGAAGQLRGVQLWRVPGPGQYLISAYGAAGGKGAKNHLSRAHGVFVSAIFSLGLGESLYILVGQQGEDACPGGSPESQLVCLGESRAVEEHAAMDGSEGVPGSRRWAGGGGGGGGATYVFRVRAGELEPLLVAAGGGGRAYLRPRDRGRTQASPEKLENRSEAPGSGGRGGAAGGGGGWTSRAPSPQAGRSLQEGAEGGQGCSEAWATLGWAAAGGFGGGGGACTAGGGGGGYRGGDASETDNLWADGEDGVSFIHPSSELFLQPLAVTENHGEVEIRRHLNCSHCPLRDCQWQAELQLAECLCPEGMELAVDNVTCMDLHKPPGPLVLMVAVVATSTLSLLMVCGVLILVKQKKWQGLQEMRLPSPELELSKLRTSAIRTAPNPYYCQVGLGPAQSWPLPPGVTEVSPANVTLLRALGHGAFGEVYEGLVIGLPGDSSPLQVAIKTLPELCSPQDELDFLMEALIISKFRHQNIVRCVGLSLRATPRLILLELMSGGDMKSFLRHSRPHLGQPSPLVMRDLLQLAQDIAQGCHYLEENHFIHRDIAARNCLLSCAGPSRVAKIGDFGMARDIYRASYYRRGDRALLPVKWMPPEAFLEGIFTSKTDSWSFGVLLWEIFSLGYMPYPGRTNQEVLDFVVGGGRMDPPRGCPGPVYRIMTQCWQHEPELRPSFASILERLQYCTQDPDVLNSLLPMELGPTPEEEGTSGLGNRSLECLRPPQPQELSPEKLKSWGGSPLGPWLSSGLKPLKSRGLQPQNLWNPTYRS

STK33 = STK33 (Homo sapiens, UniProt Q9BYT3); assay: biochemical; conditions: read-out: 1 µM GBD# (ibrutinib), % inhibition
Sequence of STK33 (Q9BYT3 whole entry): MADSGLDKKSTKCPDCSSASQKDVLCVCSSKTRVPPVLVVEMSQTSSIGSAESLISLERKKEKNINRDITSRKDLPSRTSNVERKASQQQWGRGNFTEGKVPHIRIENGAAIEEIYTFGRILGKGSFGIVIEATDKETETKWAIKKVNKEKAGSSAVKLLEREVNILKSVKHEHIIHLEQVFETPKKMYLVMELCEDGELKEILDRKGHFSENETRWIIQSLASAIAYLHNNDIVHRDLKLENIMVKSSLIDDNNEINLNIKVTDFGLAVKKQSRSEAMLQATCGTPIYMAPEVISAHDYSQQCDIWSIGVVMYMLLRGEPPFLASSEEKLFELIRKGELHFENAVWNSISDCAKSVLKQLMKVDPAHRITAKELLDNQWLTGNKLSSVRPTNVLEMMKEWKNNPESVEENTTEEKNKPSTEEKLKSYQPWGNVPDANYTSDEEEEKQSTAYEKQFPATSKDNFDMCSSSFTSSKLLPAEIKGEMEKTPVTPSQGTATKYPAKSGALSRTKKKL

TTBK1 = TTBK1 (Homo sapiens, UniProt Q5TCY1); assay: biochemical; conditions: read-out: 1 µM GBD# (ibrutinib), % inhibition

Question: Which “1 µM GBD00276 (ibrutinib), % inhibition” value (AKT3) does the source give for C=CC(=O)N1CCC[C@@H](n2nc(-c3ccc(Oc4ccccc4)cc3)c3c(N)ncnc32)C1 [Ibrutinib] here?
Answer: 18.375%

Question: What about the “1 µM GBD00276 (ibrutinib), % inhibition” value (BRSK2) of the same compound?
Answer: -9.3%

Question: What about the “1 µM GBD00276 (ibrutinib), % inhibition” value (CDK17) of the same compound?
Answer: 5.795%

Question: What about the “1 µM GBD00276 (ibrutinib), % inhibition” value (CDK5/P35) of the same compound?
Answer: 2.273%

Question: And the “1 µM GBD00276 (ibrutinib), % inhibition” value (EPHA6)?
Answer: 17.71%

Question: And the “1 µM GBD00276 (ibrutinib), % inhibition” value (EPHA7)?
Answer: -0.6285%

Question: What about the “1 µM GBD00276 (ibrutinib), % inhibition” value (FAM20C) of the same compound?
Answer: 3.541%

Question: And the “1 µM GBD00276 (ibrutinib), % inhibition” value (FYNB)?
Answer: 30.61%

Question: And the “1 µM GBD00276 (ibrutinib), % inhibition” value (HCK)?
Answer: 42.82%

Question: What about the “1 µM GBD00276 (ibrutinib), % inhibition” value (ICK) of the same compound?
Answer: -2.761%

Question: What about the “1 µM GBD00276 (ibrutinib), % inhibition” value (MAP2K1/MEK1) of the same compound?
Answer: -19%

Question: And the “1 µM GBD00276 (ibrutinib), % inhibition” value (MAP3K11)?
Answer: -6.395%

Question: What about the “1 µM GBD00276 (ibrutinib), % inhibition” value (MAP3K7) of the same compound?
Answer: -2.955%

Question: And the “1 µM GBD00276 (ibrutinib), % inhibition” value (MAPK14/P38A)?
Answer: 4.135%

Question: What about the “1 µM GBD00276 (ibrutinib), % inhibition” value (MARK1) of the same compound?
Answer: -2.409%

Question: And the “1 µM GBD00276 (ibrutinib), % inhibition” value (MASTL)?
Answer: -9.51%

Question: What about the “1 µM GBD00276 (ibrutinib), % inhibition” value (MERTK/MER) of the same compound?
Answer: 2.725%

Question: And the “1 µM GBD00276 (ibrutinib), % inhibition” value (MINK1)?
Answer: 7.641%

Question: And the “1 µM GBD00276 (ibrutinib), % inhibition” value (NDR2)?
Answer: 11.14%

Question: And the “1 µM GBD00276 (ibrutinib), % inhibition” value (NEK6)?
Answer: -7.047%

Question: What about the “1 µM GBD00276 (ibrutinib), % inhibition” value (PAK6) of the same compound?
Answer: 14.55%

Question: What about the “1 µM GBD00276 (ibrutinib), % inhibition” value (PHKG1) of the same compound?
Answer: 0.1781%

Question: What about the “1 µM GBD00276 (ibrutinib), % inhibition” value (ROCK1) of the same compound?
Answer: 3.894%

Question: And the “1 µM GBD00276 (ibrutinib), % inhibition” value (RPS6KA1/RSK1)?
Answer: 9.099%

Question: What about the “1 µM GBD00276 (ibrutinib), % inhibition” value (STK4/MST1) of the same compound?
Answer: -13.54%

Question: And the “1 µM GBD00276 (ibrutinib), % inhibition” value (TBK1)?
Answer: -3.072%

Question: What about the “1 µM GBD00276 (ibrutinib), % inhibition” value (ULK3) of the same compound?
Answer: 2.341%

Question: What about the inhibition at 1 µM (DYRK1B) of the same compound?
Answer: 18%

Question: What about the inhibition at 1 µM (LTK) of the same compound?
Answer: -5.01%

Question: And the inhibition at 1 µM (STK33)?
Answer: 3.6%

Question: What about the inhibition at 1 µM (TTBK1) of the same compound?
Answer: 8.89%
